The values below are quoted from earlier work in patent US5545628A, “Pharmaceutical composition containing fenofibrate” (priority 1995, dated 1996).

The structures appear in SMILES notation.

Take `CC(C)OC(=O)C(C)(C)Oc1ccc(C(=O)c2ccc(Cl)cc2)cc1` [Fenofibrate, P-(4-chlorobenzoyl)-phenoxy isobutyrate isopropyl ester]: the absorption as metabolite entry (oral) is “absorbed as fenofibric acid”.
In the case of `CC(C)(Oc1ccc(C(=O)c2ccc(Cl)cc2)cc1)C(=O)O` [Fenofibric acid], the excretion entry (fenofibric acid, mainly as the glucuronide conjugate) is “excreted predominantly in the urine”.
